A melting point compilation (Tetko et al.; mined from patent text by program, amines drawn as free bases though some values may be those of a salt)

melting point [°C]	Structure (SMILES)
103 to 106	COC(=O)CCCc1cc2cc(Cl)ccc2n1S(=O)(=O)c1ccc2nsnc2c1
176 to 178	CC(C)(C)OC(=O)N1CCC(c2ccc(Nc3nc4c(-c5cnn(-c6ccc(F)cc6)c5)cccn4n3)cc2)CC1
118 to 120	O=S(=O)(NC1C2CCC(C2)C1CO)c1ccccc1 (configuration not stated)
147 to 149	Cn1cc(-c2ccncn2)ccc1=O
61 to 62	CCCCCc1c(OCc2ccccc2)ccc(C(C)=O)c1O
80 to 82	CCOC(=O)COCc1nnc(S)s1
98.6	COCCO[C@@H]1c2ccn3c(C)c(C)nc3c2N[C@H](c2ccccc2)[C@H]1OC(=O)CCCCBr
177 to 178	O=c1[nH]c2cc(F)c(NCC3CCc4ccccc4C3)cc2o1 (configuration not stated)
132 to 133	OCc1ccc2cc(-c3nnc(CSCCOc4ccccc4)o3)ccc2c1
77 to 80	CC(C)(Cn1cncn1)C(O)(CCc1ccc2ccccc2c1)Cn1cncn1 (configuration not stated)
252 to 255	c1ccc(Nc2nnc(-c3cccnc3)s2)cc1
65 to 66	CC(=O)C(C)(C)Nc1ccccc1
225 to 227	S=C(Nc1c(Cl)cccc1Cl)N1CCN(c2cnccn2)CC1
195	CC(=O)c1ccc2c(NCc3ccc(NC(=O)c4ccc(F)cc4)cc3)nc(N(C)C)nc2c1
143 to 144	O=C(CO)OC(=O)CCS
165 to 167	Cc1c(C)c2c(c(C)c1NC(=O)c1ccc3c(c1)OCO3)C(c1ccc(C(C)C)cc1)C(C)(C)O2 (configuration not stated)
173	Nc1c2c(nc3cccc(F)c13)C1CCC2C1 (configuration not stated)
151 to 155	Cc1ccc(C(=S)c2ccccc2C(=O)O)cc1
99 to 101	CC(C)CCC1(c2ccccc2)CC(O)=C(Sc2ccccc2C(=O)O)C(=O)O1 (configuration not stated)
219 to 245	N#Cc1cc(NC(=O)c2cc3ccccc3s2)ccc1N1CCCCC1
167 to 169	COC(=O)c1nc(Cl)cnc1N=S(C)C
33 to 35	CCCC(=O)c1noc2ccccc12
65 to 75	COC(=O)c1cc(C2OC(=O)CC(C)O2)cnc1C1=NC(C)(C(C)C)C(=O)N1 (configuration not stated)
196 to 197	N#Cc1cnn2c(-c3ccccc3C(F)(F)F)ccnc12

melting point [°C]	Structure (SMILES)
124 to 125	Cn1nc(-c2ccccc2Cl)nc1-c1cccc([N+](=O)[O-])c1Cl
169 to 171	Cc1nc(N2CCN(CC3CC3)C2=O)sc1-c1cc[nH]n1
171 to 173	CC(C)OC(=O)c1cc(-n2c(=O)[nH]c(CF)c(F)c2=O)c(F)cc1Cl
120 to 122	Cc1ccc(NS(=O)(=O)c2ccccc2)cc1NC(=O)Cc1ccc(C#N)cc1
173 to 176	COc1ccc(/C=C/C(=O)CC(=O)/C=C/c2ccc(O)c(F)c2)cc1O
91 to 92	C=CCOc1cc(C=CNC(=O)OC)ccc1OCC(O)CNC(C)C (configuration not stated)
236 to 238	CC(=O)N1C(=O)C2(COc3cc4c(cc32)OCCO4)c2ccccc21 (configuration not stated)
156 to 157	CC(C)(C)c1cc(CCc2ccccc2NC(=O)NC2CCN(Cc3ccc(C(F)(F)F)cc3C(F)(F)F)CC2)cc(C(C)(C)C)c1O
57 to 58	CCCCCC1(C(=O)O)CC2=C(C1)C(C)(C)CCC2(C)C
193 to 195	O=C1CCC(N2C(=O)c3cccc(CNC(=O)Nc4cccc(Cl)c4)c3C2=O)C(=O)N1 (configuration not stated)
70 to 75	COC=C(C(=O)OC)c1ccccc1CC(=O)c1ccccc1Cl
51 to 53	COc1ccc(OCC#CCCC(N)N2C(=O)c3ccccc3C2=O)cc1 (configuration not stated)
169 to 172	COc1ccc(Cn2nc3oc(=O)cc(C)c3c2C)cc1
53 to 65	CC(=O)SC1NC(=O)C1C (configuration not stated)
95 to 97	CCCc1cn2ccccc2c1C(=O)c1ccc(OS(=O)(=O)c2ccc(C)cc2)cc1
150 to 151	O=C(O)CCc1ccc(NC(=O)C(COC2CCCCO2)NS(=O)(=O)c2ccc(Cl)cc2)cc1 (racemic)
108 to 114	CN(C)c1ccc(NC(=O)N(C[C@@H]2CCCC[C@H]2CN(C(=O)Nc2ccc(N(C)C)cc2)C2CCCCC2)C2CCCCC2)cc1 (relative stereo)
200 to 201	CC1(C)C(=O)Nc2ccc(-c3coc(C#N)c3)cc21
134	CCOC(=O)COc1cc(-c2ccc(C)cc2)nc2cccc(C(F)(F)F)c12
160	COc1cc(C(=O)O)c(-c2cc3cc(O)ccc3[nH]2)cc1OC
146 to 147	COc1cc(F)ccc1Oc1c(Cl)ncnc1NS(=O)(=O)c1ccc(C(C)(C)C)cc1
201 to 203	Cc1noc(C)c1COc1ccc(C(=O)O)c(O)c1
184 to 193	Nc1ccc2c(c1)COc1cc(Nc3ccc(F)cc3F)ccc1C2=O
165	CCCCOc1ccc(NC(=O)N(C)c2cccc(-c3ccc(CCC(=O)O)cc3)c2)cc1

melting point [°C]	Structure (SMILES)
121 to 123	COC(=O)c1cccnc1NS(=O)(=O)NC(C)C
100 to 101	COC(=O)c1ccc(OCc2cccc(OCc3ccc4ccccc4n3)c2)c(OC)c1
241	CCOC(=O)c1ccc2c(C=C[N+](=O)[O-])c[nH]c2c1
90 to 96	COCCN(C)c1cc2ncc(C#N)c(C)c2cc1OC
> 250	O=c1cc(-c2nnn[nH]2)oc2c(COc3ccc(OCc4ccc5ccccc5n4)cc3)cccc12
225 to 228	NC(=O)c1ccc(C(F)(F)F)cc1N1CCc2nc(NS(=O)(=O)c3cc(C(F)(F)F)cc(C(F)(F)F)c3)sc2C1
251	CC(C)(CO)NS(=O)(=O)c1cccc(NC(=O)c2cnn3c(C(F)(F)F)cc(-c4ccc(C(F)(F)F)c(Cl)c4)nc23)c1
235 to 237	Nc1ccc(Cl)c(C(=O)c2sc(Nc3ccc4nc[nH]c4c3)nc2N)c1Cl
73 to 76	CON=Cc1ccccc1OCc1ccccc1C(=NOC)C(=O)OC
210 to 212	CCCCc1ncc(/C=C(/C(=O)O)c2ccccc2)n1Cc1ccccc1Cl
> 250	CC(C)N1Cc2c(-n3c(=O)cc(C(F)(F)F)[nH]c3=O)ccc(Cl)c2C1=O
188	COC(=O)CCCc1cc2nc(Cl)ccc2n1S(=O)(=O)c1ccc(N(C)C)cc1
215 to 220	O=C(O)Cc1c(C(=O)c2ccc(Cl)cc2)[nH]c2cc(Cl)c(F)cc12
108 to 110	O=C(O)CCC(=O)c1ccc(F)c(Br)c1
143 to 144	CN(C)CCNC(=O)c1nc(N)sc1-c1ccccn1
173 to 175	CCCc1c(OCCCCc2ccc3cc(O)c(O)cc3c2)ccc(C(=O)O)c1O
83	CCOC(=O)c1[nH]c2ccccc2c1CN(Cc1cc(C(F)(F)F)cc(C(F)(F)F)c1)c1nnn(C)n1
229 to 231	O=C(O)C1=Cc2cc(Cl)ccc2N(Cc2ccc(C(F)(F)F)cc2)C1C(F)(F)F (configuration not stated)
117	CCc1ccc(C#Cc2ccc(Br)cc2)cc1
111 to 115	CCCc1ccc(C(=O)OCC)n1Cc1ccc(-c2ccccc2C(=O)O)cc1
86 to 89	O=S1(=O)N(CCBr)c2ccccc2N1c1ccc(Cl)cc1
132 to 133	CC1(CN=[N+]=[N-])COC(Cn2ccnc2)(c2ccc(Cl)cc2Cl)OC1 (configuration not stated)
119 to 120	CC(C)(c1ccccc1)N1CCC=C(c2ccccc2)C1=O
83	CCOC(=O)c1ccc(C=C(C)C=O)o1

melting point [°C]	Structure (SMILES)
> 235	O=C(Nc1ccc(C(=O)O)cc1)OCc1ccccc1
101	C#CCNc1nnc(-c2ccccc2)cc1C
177 to 178	CCOCc1nc2c(N)nc3ccccc3c2n1CCCCCS(=O)(=O)NCc1ccc(OC)cc1
93 to 94	COc1ccc(CNc2cc(F)cc(C#N)c2)cc1
64 to 73	CC1(C)C(=O)C(C)(C)c2cc(C(F)CN3CCN(c4nsc5ccccc45)CC3)ccc21 (configuration not stated)
160 to 163	O=C1[C@H]2CCC[C@H]2Nc2ccc(Cl)cc2N1Cc1ccccc1 (relative stereo)
116 to 119	CS(=O)(=O)c1ccc(-c2cnn(Cc3ccc4cc(F)ccc4n3)c(=O)c2-c2ccc(F)cc2)cc1
114 to 118	CN1C(=O)N(CC(COc2ccc(-c3ccc(OC(F)(F)F)cc3)cc2)N(O)C=O)C(=O)C1(C)C (configuration not stated)
134 to 135	CCCCCCCCCCCCCCCCn1nnc(C(C(=O)Nc2c(OC)cc(OC)cc2OC)c2ccccc2)n1 (configuration not stated)
113 to 115	CCC(O)(CC)CC(=NO)C1(c2ccc(Cl)cc2)CCC1
154 to 158	CCOC(=O)CCNC(=O)C(Cc1ccc(-c2ccccc2)cc1)N(CP(=O)(O)O)C(OC(=O)CC)C(C)C (configuration not stated)
147 to 148	CC(C)(c1cc(F)ccc1F)S(=O)(=O)c1ccc(Cl)cc1
257 to 258	CC1(CCN2C(=O)SC(=Cc3ccc(C(F)(F)F)cc3)C2=O)Cn2cc([N+](=O)[O-])nc2O1 (configuration not stated)
286 to 288	Oc1ccc(-c2nc3ccccc3[nH]2)cc1
192 to 194	COC(=O)C1=C(CCc2ccccc2)NC(CC(=O)NCCO)=C(C(=O)OC)C1c1c(Cl)cccc1Cl (configuration not stated)
184	NC(=O)CCNc1ccc([N+](=O)[O-])cc1OCCO
126 to 129	CSc1c(C(=O)O)ccc(Br)c1F
145 to 147	Cc1nc(NC(=O)c2ccccc2)cn1CCCCC1(C(=O)NCC(F)(F)F)c2ccccc2-c2ccccc21
212 to 213	Cn1cc2c(n1)-c1c(Cc3ccccc3)sc(C(N)=O)c1CC2
216 to 218	CCOC(=O)/C=C/c1ccc(-c2ccc(O)c(C34CC5CC(CC(C5)C3)C4)c2)c(Cl)c1
66 to 67	CCCn1cnc(NC)c1C(=O)NCCCCCCOc1ccc(Cl)cc1
110 to 118	[N-]=[N+]=NCCOc1ccc(/C(=C(\c2ccccc2)C(F)(F)F)c2ccccc2)cc1

Structure (SMILES)	melting point [°C]
O=C(O)C1(c2cccc(C(F)(F)F)c2)CCN(Cc2ccccc2)CC1	243
Cc1noc(-c2ncn3c2CN(C)C(=O)c2cc(F)ccc2-3)n1	244 to 245
CN1CCN(c2c(F)c(F)c([N+](=O)[O-])c(F)c2F)CC1	77 to 78
